These compounds were tested on methyltransferase NcpB (assay: NcpB O-methyltransferase enzyme assay). Settings: with NcpB and SAM.

Row | Compound | substrate of NcpB (O-methylation)
1 | Cc1cc(O)cc(=O)o1 | not substrates
2 | Cc1cc(O)c(C)c(=O)o1 [4-hydroxy-3,6-dimethyl-2-pyrone] | not substrates
3 | germicidin A | not substrates

Reference: article PMC3558931 (Chemistry & biology, 2013)
